# Data as given in US4459232A, “Imidazo[1,2-c][1,3]benzodiazepines” (Ciba-Geigy Corporation, priority 1982, dated 1984).
# Key:
# [1] = target: histamine activation of adenylate cyclase; assay: inhibition of histamine activation of adenylate cyclase in vesicles of guinea pig cerebral cortex; format: biochemical; conditions: 50 micromolar histamine
# Procedure: Finally, said antihistaminic properties can be shown in vitro, e.g., according to Chasin et al., J. Neurochem. 22, 1031 (1974). Vesicles from a cell free preparation of guinea pig cerebral cortex are preincubated with ^3 H-adenine to form endogenous ^3 H-adenosine triphosphate. The vesicles are then incubated with 50 micromolar histamine to activate ^3 H-cyclic adenosine monophosphate synthesis in the absence or presence of the test compound at a concentration between 0.01 and 100 micromolar. When said compound is active, it inhibits the histamine activation of adenylate cyclase. The IC50 represents the concentration at which histamine activation is inhibited by 50%.
# monkeys = assay: conditioned avoidance behavior (lever press to avoid foot shock) in monkeys; format: in vivo, squirrel monkey; conditions: Primates, oral, read-out: oral dose that disrupts avoidance behavior (decreases avoidance responses)
# Procedure: (§1) Each lever press postpones the shock for 30 seconds. Whenever the animal fails to press the lever once within said period, brief (0.5 sec.) shocks are delivered at 15 second intervals until the animal again presses the lever. Under control conditions the animals press the lever at a moderately steady rate and seldom receive more than five or six shocks during a 25-minute (rats) and up to 4-hour experimental session. Said compounds evaluated for neuroleptic activity, are administered to the animals 30, 90, 210 minutes prior to the experimental session and block the learned conditioned avoidance behavior, manifested by a decrease in avoidance responding with a marked increase in shocks taken by the animal. Both the avoidance responses and failures (shocks received) are recorded separately for evaluation.
# (§2) Indicative of the antipsychotic utility of the compounds of this invention, e.g., the compound of example 1, namely 5-(4-methyl-1-piperazinyl)-11H-imidazo[1,2-c][1,3]benzodiazepine disrupts avoidance behavior, e.g. decreases avoidance responses in rats and monkeys at an oral dose of 30 mg/kg or lower.
# rats = assay: conditioned avoidance behavior (lever press to avoid foot shock) in rats; format: in vivo; conditions: Rattus norvegicus, oral, read-out: oral dose that disrupts avoidance behavior (decreases avoidance responses)
# Procedure: as §1, §2
# α-adrenergic = α-adrenergic blocking activity in vitro; format: biochemical
# monkey = assay: extrapyramidal side effects (dyskinesias, dystonias) in the monkey; format: in vivo
compound,measurement,setting,value
"CN1CCN(C2=Nc3ccccc3Cc3nccn32)CC1 [example 1, 5-(4-methyl-1-piperazinyl)-11H-imidazo[1,2-c][1,3]benzodiazepine]",IC50,[1],~1 µM
same,minimal effective dose,monkeys,≤ 30 mg/kg
same,minimal effective dose,rats,≤ 30 mg/kg
same,α-adrenergic blocking activity,α-adrenergic,only minimal α-adrenergic blocking activity
same,"extrapyramidal side effects, e.g. dyskinesias and dystonias",monkey,essentially free of extrapyramidal side effects
